{"source": "patent US20050261298A1", "about": "“Methods of treating conditions associated with an Edg-7 receptor” (priority 2002, published 2005)", "key": {"Edg-1": {"molecular_target": "T1, Edg-1 (Homo sapiens, UniProt P21453)", "T1 construct": "expressed in transfected cells; host or cells: HTC rat hepatoma cells", "T1 sequence (P21453 whole entry)": "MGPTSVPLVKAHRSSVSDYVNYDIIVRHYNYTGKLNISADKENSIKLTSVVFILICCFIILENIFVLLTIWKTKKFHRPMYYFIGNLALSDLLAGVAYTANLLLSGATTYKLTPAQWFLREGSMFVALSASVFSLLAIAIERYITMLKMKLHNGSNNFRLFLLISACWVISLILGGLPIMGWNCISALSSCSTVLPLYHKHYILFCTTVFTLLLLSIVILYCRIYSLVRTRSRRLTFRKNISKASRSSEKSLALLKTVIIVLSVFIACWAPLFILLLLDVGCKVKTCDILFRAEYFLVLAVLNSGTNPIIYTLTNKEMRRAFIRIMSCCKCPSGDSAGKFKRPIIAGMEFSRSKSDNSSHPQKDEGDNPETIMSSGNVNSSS", "experiment": "Calcium mobilization assay (FLIPR), inhibition of S1P-stimulated calcium increase", "format": "cell-based", "conditions": "HTC cells expressing Edg-1"}, "Edg-2": {"molecular_target": "T2, Edg-2 (Homo sapiens, UniProt Q92633)", "T2 construct": "expressed in transfected cells; host or cells: HTC rat hepatoma cells", "T2 sequence (Q92633 whole entry)": "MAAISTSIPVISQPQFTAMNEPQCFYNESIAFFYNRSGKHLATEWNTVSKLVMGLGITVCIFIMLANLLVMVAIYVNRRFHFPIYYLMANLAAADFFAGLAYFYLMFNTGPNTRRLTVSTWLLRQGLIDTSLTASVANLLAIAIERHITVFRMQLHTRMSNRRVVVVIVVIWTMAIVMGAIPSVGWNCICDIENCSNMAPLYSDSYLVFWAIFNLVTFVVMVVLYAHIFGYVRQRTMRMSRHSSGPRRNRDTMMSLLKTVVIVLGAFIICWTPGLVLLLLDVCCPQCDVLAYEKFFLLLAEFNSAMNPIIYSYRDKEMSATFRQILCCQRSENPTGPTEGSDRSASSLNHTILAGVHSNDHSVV", "experiment": "Calcium mobilization assay (FLIPR), inhibition of LPA-stimulated calcium increase", "format": "cell-based", "conditions": "HTC cells expressing Edg-2"}, "Edg-3": {"molecular_target": "T3, Edg-3 (Homo sapiens, UniProt Q99500)", "T3 construct": "expressed in transfected cells; host or cells: HTC rat hepatoma cells", "T3 sequence (Q99500 whole entry)": "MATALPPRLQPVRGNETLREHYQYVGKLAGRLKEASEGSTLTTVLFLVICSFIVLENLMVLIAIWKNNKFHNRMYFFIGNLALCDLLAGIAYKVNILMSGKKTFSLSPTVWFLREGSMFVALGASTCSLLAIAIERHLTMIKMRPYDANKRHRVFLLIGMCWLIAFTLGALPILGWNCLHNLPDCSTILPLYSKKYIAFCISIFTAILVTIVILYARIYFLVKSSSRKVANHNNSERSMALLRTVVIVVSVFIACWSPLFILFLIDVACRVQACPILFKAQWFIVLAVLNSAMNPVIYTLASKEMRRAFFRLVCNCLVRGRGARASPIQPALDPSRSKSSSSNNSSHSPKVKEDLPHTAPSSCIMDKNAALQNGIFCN", "experiment": "Calcium mobilization assay (FLIPR), inhibition of S1P-stimulated calcium increase", "format": "cell-based", "conditions": "HTC cells expressing Edg-3"}, "Edg-4": {"molecular_target": "Edg-4 (Homo sapiens, UniProt Q9HBW0)", "sequence (Q9HBW0 1-344 limits assumed)": "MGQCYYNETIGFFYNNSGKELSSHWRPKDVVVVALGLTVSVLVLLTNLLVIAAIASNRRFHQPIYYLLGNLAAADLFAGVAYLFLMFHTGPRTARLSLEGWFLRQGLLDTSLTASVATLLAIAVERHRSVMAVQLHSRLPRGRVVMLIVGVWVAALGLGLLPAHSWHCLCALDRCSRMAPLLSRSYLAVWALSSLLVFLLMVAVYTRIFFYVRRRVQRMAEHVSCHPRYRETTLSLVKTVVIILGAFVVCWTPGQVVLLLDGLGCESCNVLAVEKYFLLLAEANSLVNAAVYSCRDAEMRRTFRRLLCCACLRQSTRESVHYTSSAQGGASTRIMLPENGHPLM", "experiment": "Calcium mobilization assay (FLIPR), inhibition of LPA-stimulated calcium increase", "format": "cell-based", "conditions": "HTC cells expressing Edg-4"}, "Edg-5": {"molecular_target": "T4, Edg-5 (Homo sapiens, UniProt O95136)", "T4 construct": "expressed in transfected cells; host or cells: HTC rat hepatoma cells", "T4 sequence (O95136 whole entry)": "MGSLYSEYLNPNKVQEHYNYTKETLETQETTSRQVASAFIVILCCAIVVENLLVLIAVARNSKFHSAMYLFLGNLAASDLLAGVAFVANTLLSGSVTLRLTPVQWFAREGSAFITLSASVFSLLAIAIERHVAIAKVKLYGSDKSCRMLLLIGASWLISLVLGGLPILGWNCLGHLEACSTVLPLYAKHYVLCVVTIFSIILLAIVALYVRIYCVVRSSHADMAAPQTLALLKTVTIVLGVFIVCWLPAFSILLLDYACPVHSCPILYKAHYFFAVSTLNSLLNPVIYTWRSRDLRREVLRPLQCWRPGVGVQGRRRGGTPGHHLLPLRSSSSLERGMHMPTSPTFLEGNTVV", "experiment": "Calcium mobilization assay (FLIPR), inhibition of S1P-stimulated calcium increase", "format": "cell-based", "conditions": "HTC cells expressing Edg-5"}, "Edg-6": {"molecular_target": "T5, Edg-6 (Homo sapiens, UniProt O95977)", "T5 construct": "expressed in transfected cells; host or cells: HTC rat hepatoma cells", "T5 sequence (O95977 1-384)": "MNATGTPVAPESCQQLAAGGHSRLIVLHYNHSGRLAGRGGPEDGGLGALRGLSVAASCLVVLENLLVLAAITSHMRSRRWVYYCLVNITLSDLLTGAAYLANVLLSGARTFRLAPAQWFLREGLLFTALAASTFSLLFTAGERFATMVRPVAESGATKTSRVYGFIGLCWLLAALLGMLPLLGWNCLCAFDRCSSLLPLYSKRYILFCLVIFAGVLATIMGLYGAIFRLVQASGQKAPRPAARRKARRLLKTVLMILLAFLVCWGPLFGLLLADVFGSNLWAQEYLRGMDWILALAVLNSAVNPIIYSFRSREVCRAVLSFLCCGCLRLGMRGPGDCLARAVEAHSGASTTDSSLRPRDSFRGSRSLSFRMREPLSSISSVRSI", "experiment": "Calcium mobilization assay (FLIPR), inhibition of S1P-stimulated calcium increase", "format": "cell-based", "conditions": "HTC cells expressing Edg-6"}, "Edg-8": {"molecular_target": "T6, Edg-8 (Homo sapiens, UniProt Q9H228)", "T6 construct": "expressed in transfected cells; host or cells: HTC rat hepatoma cells", "T6 sequence (Q9H228 whole entry)": "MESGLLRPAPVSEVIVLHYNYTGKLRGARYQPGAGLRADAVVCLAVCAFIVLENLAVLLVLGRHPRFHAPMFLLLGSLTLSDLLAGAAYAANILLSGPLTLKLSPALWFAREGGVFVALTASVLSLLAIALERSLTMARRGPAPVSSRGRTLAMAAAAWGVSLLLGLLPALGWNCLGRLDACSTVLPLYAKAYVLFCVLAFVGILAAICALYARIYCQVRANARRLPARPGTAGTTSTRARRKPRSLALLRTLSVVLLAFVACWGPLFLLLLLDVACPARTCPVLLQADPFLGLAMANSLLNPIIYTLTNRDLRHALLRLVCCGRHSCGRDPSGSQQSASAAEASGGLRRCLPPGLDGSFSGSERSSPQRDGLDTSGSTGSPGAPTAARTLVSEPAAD", "experiment": "Calcium mobilization assay (FLIPR), inhibition of S1P-stimulated calcium increase", "format": "cell-based", "conditions": "HTC cells expressing Edg-8"}, "[1]": {"test_system": "Adrenergic α1, Non-Selective", "experiment": "Radioligand binding assay, 3H Prazosin", "design": "species or system Wistar Rat", "conditions": "significance criteria ≧50% of max stimulation or inhibition", "procedure": "(§1) In order to test the selectivity of compounds, various enzyme assays as well as radioligand binding assays were performed using numerous non-Edg receptor targets as listed below.\n(§2) A radioligand binding assay was performed using adrenergic α1 according to the method of Greengrass and Bremner 1979, Eur. J. Pharmacol. 55:323-326. A radioligand binding assay was performed using adrenergic α2 according to the method of Boyajian and Leslie, 1987, J. Pharmacol. Exp. Ther. 241:1092-1098. A radioligand binding assay was performed using adrenergic β according to the method of Feve et al., 1994, Proc. Natl. Acad. Sci. USA 91:5677-5681. A radioligand binding assay was performed using angiotensin AT2 according to the method of Whitebread et al., 1991, Biochem. Biophys. Res. Comm. 181:1365-1371. A radioligand binding assay was performed using calcium channel Type L, dihydropyridine according to the method of Ehlert et al., 1982, Life Sci. 30:2191-2202. A radioligand binding assay was performed using dopamine D2L according to the method of Bunzo et al., 1988, Nature 336:783-787. A radioligand binding assay was performed using endothelin ETA according to the method of Mihara et al., 1994, J. Pharmacol. Exp Ther. 268:1122-1127. A radioligand binding assay was performed using histamine H1 Central according to the method of Hill et al., 1978, J. Neurochem. 31:997-1004. […]"}, "Adrenergic α2": {"test_system": "Adrenergic α2", "experiment": "Radioligand binding assay, 3H Rauwolscine", "design": "species or system Wistar rat", "conditions": "significance criteria ≧50% of max stimulation or inhibition", "procedure": "as §1, §2"}, "Adrenergic β": {"test_system": "Adrenergic β", "experiment": "Radioligand binding assay, 3H Dihydroaplenolol", "design": "species or system Wistar rat", "conditions": "significance criteria ≧50% of max stimulation or inhibition", "procedure": "as §1, §2"}, "[2]": {"test_system": "Calcium Channel Type L, Dihydropyridine", "experiment": "Radioligand binding assay, 3H Nitrendipine", "design": "species or system Wistar Rat", "conditions": "significance criteria ≧50% of max stimulation or inhibition", "procedure": "as §1, §2"}, "Dopamine D2L": {"molecular_target": "T7, Dopamine D2L (Homo sapiens, UniProt P14416)", "T7 construct": "expressed in transfected cells; host or cells: CHO cells", "T7 sequence (P14416 whole entry)": "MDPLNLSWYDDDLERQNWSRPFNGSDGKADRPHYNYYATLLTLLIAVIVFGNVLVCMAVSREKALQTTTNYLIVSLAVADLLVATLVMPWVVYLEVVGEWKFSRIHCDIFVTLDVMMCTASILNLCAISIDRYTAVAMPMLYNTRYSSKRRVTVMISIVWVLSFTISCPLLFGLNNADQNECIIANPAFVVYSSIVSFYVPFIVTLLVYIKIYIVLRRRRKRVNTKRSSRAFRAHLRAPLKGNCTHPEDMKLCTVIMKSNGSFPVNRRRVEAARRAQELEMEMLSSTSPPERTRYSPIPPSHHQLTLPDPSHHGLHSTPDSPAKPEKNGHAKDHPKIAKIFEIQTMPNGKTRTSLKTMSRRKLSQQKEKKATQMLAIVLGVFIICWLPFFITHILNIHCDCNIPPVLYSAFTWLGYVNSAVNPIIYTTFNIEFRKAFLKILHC", "experiment": "Radioligand binding assay, 3H Spiperone", "conditions": "significance criteria ≧50% of max stimulation or inhibition", "procedure": "as §1, §2"}, "Endothelin ETA": {"molecular_target": "T8, Endothelin ETA (Homo sapiens, UniProt P25101)", "T8 construct": "expressed in transfected cells; host or cells: CHO cells", "T8 sequence (P25101 21-427)": "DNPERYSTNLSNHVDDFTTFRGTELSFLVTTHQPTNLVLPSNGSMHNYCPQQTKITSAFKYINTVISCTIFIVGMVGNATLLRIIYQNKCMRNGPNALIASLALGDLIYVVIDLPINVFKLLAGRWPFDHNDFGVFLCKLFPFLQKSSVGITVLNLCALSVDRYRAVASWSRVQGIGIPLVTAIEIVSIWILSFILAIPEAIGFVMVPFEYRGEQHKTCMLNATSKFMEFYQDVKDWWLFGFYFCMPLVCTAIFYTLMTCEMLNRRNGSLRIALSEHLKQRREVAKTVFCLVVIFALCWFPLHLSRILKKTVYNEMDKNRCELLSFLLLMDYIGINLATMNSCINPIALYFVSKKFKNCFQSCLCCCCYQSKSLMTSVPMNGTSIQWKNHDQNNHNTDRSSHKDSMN", "experiment": "Radioligand binding assay, 125I Endothelin", "conditions": "significance criteria ≧50% of max stimulation or inhibition", "procedure": "as §1, §2"}, "Histamine H1, Central": {"molecular_target": "T9, Histamine H1, Central (Cavia porcellus, UniProt P31389)", "T9 construct": "Source: Guinea pig cerebellum; from tissue; host or cells: guinea pig cerebellum", "T9 sequence (P31389 whole entry)": "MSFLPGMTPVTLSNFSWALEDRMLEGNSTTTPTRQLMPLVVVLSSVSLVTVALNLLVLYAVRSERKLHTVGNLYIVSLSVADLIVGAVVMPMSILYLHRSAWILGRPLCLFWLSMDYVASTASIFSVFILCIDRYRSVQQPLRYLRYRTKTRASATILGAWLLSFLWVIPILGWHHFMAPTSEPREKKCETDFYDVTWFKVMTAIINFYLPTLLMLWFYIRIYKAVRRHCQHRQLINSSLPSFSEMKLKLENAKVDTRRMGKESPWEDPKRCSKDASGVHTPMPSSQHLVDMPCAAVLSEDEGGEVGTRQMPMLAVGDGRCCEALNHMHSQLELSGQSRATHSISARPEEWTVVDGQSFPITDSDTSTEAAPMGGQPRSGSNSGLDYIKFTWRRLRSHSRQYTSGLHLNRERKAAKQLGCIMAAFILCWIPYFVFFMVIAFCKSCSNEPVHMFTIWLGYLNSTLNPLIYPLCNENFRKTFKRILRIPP", "experiment": "Radioligand binding assay, 3H Pyrilamine", "design": "species or system Guinea pig", "conditions": "significance criteria ≧50% of max stimulation or inhibition", "procedure": "as §1, §2"}, "[3]": {"test_system": "Muscarinic Non-Selective, Central", "experiment": "Radioligand binding assay, 3H Quinuclidinyl benzilate", "design": "species or system Wistar rat", "conditions": "significance criteria ≧50% of max stimulation or inhibition", "procedure": "as §1, §2"}, "[4]": {"conditions": "concentrations as high as 20 µM"}}, "data": [{"smiles": "CCOC(=O)c1c(NC(=O)NS(=O)(=O)c2ccccc2Cl)sc2c1CCCC2", "note": "[Compound 101]", "values": [{"measurement": "IC50", "setting": "Edg-1", "value": "> 20", "unit": "µM"}, {"measurement": "inhibition of S1P-stimulated calcium increases, Edg-1", "setting": "Edg-1; [4]", "value": "did not inhibit"}, {"measurement": "IC50", "setting": "Edg-2", "value": "> 20", "unit": "µM"}, {"measurement": "inhibition of LPA-stimulated calcium increases, Edg-2", "setting": "Edg-2; [4]", "value": "did not inhibit"}, {"measurement": "IC50", "setting": "Edg-3", "value": "> 20", "unit": "µM"}, {"measurement": "inhibition of S1P-stimulated calcium increases, Edg-3", "setting": "Edg-3; [4]", "value": "did not inhibit"}, {"measurement": "IC50", "setting": "Edg-4", "value": "> 20", "unit": "µM"}, {"measurement": "inhibition of LPA-stimulated calcium increases, Edg-4", "setting": "Edg-4; [4]", "value": "did not inhibit"}, {"measurement": "IC50", "setting": "Edg-5", "value": "> 20", "unit": "µM"}, {"measurement": "inhibition of S1P-stimulated calcium increases, Edg-5", "setting": "Edg-5; [4]", "value": "did not inhibit"}, {"measurement": "IC50", "setting": "Edg-6", "value": "> 20", "unit": "µM"}, {"measurement": "inhibition of S1P-stimulated calcium increases, Edg-6", "setting": "Edg-6; [4]", "value": "did not inhibit"}, {"measurement": "IC50", "setting": "Edg-8", "value": "> 20", "unit": "µM"}, {"measurement": "inhibition of S1P-stimulated calcium increases, Edg-8", "setting": "Edg-8; [4]", "value": "did not inhibit"}, {"measurement": "activity in radioligand binding assay, Adrenergic Alpha 1, non-selective", "setting": "[1]", "value": "no significant activity"}, {"measurement": "activity in radioligand binding assay, Adrenergic Alpha 2, non-selective", "setting": "Adrenergic α2", "value": "no significant activity"}, {"measurement": "activity in radioligand binding assay, Adrenergic Beta, non-selective", "setting": "Adrenergic β", "value": "no significant activity"}, {"measurement": "activity in radioligand binding assay, Calcium Channels Type L, DHP", "setting": "[2]", "value": "no significant activity"}, {"measurement": "activity in radioligand binding assay, Dopamine D2L", "setting": "Dopamine D2L", "value": "no significant activity"}, {"measurement": "activity in radioligand binding assay, Endothelin ETA", "setting": "Endothelin ETA", "value": "no significant activity"}, {"measurement": "activity in radioligand binding assay, H1 central", "setting": "Histamine H1, Central", "value": "no significant activity"}, {"measurement": "activity in radioligand binding assay, Muscarinic, non-selective, central", "setting": "[3]", "value": "no significant activity"}]}]}
